Laboratory results taken from ChEMBL document CHEMBL1201862, “PubChem BioAssay data set” (2004).
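Following 48 hours of exposure in 96-well plates, responses at five concentrations were used to interpolate endpoints linearly. Abbreviation: GI50, concentration required for 50% inhibition of growth.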 Calls of active or inactive are those of the source. Rule as the data show it: active = GI50 up to about 1.1 µM and inactive = higher.

Key:
Assay in all cases: growth of human tumour cells (NCI), 48 h
COLO 205 = tested on: COLO 205
HCT-15 = tested on: HCT-15
HL-60 = tested on: HL-60
HT-29 = tested on: HT-29
Hs-578T = tested on: Hs-578T
K562 = tested on: K562
M14 = tested on: M14
MDA-N = tested on: MDA-N
MOLT-4 = tested on: MOLT-4
NCI-H226 = tested on: NCI-H226
NCI-H23 = tested on: NCI-H23
OVCAR-5 = tested on: OVCAR-5
OVCAR-8 = tested on: OVCAR-8
PC-3 = tested on: PC-3
SK-MEL-28 = tested on: SK-MEL-28
SK-MEL-5 = tested on: SK-MEL-5
SK-OV-3 = tested on: SK-OV-3
TK-10 = tested on: TK-10
UACC-257 = tested on: UACC-257
UACC-62 = tested on: UACC-62

`COC(=O)c1ccc(O)c2nc3c(C=O)c(O)cc(O)c3nc12` [LOMOFUNGIN] was tested, and the GI50 (COLO 205) was 3.1 µM (inactive), the GI50 (HCT-15) was 0.22 µM and the GI50 (HL-60) was 0.293 µM (active). For the same molecule, the GI50 (HT-29) was 0.458 µM (active), the GI50 (Hs-578T) was 1.21 µM (inactive) and the GI50 (K562) was 0.0847 µM (active). For the same molecule, the GI50 (M14) was 0.592 µM (active), the GI50 (MDA-N) was 1.67 µM (inactive) and the GI50 (MOLT-4) was 0.225 µM (active). For the same molecule, the GI50 (NCI-H226) was 0.542 µM (active), the GI50 (NCI-H23) was 0.139 µM (active) and the GI50 (OVCAR-5) was 0.822 µM (active). For the same molecule, the GI50 (OVCAR-8) was 0.0439 µM (active), the GI50 (PC-3) was 0.661 µM (active) and the GI50 (SK-MEL-28) was 1.93 µM (inactive). The GI50 (SK-MEL-5) was 0.953 µM (active), the GI50 (SK-OV-3) was 2.96 µM (inactive) and the GI50 (TK-10) was 1.62 µM (inactive). For the same molecule, the GI50 (UACC-257) was 0.782 µM (active) and the GI50 (UACC-62) was 1.27 µM (inactive).

`c1ccc2c(c1)nc1n2CCNC1` was tested, and the GI50 (COLO 205) was > 100 µM (inactive), the GI50 (HCT-15) was greater than 100 µM and the GI50 (HL-60) was > 100 µM (inactive). For the same molecule, the GI50 (HT-29) was > 100 µM (inactive), the GI50 (Hs-578T) was > 100 µM (inactive) and the GI50 (K562) was > 100 µM (inactive). For the same molecule, the GI50 (M14) was > 100 µM (inactive), the GI50 (MDA-N) was > 100 µM (inactive) and the GI50 (MOLT-4) was > 100 µM (inactive). The GI50 (NCI-H226) was > 100 µM (inactive), the GI50 (NCI-H23) was > 100 µM (inactive) and the GI50 (OVCAR-5) was > 100 µM (inactive). For the same molecule, the GI50 (OVCAR-8) was > 100 µM (inactive), the GI50 (PC-3) was > 100 µM (inactive) and the GI50 (SK-MEL-28) was > 100 µM (inactive). For the same molecule, the GI50 (SK-MEL-5) was > 100 µM (inactive), the GI50 (SK-OV-3) was > 100 µM (inactive) and the GI50 (TK-10) was > 100 µM (inactive). The GI50 (UACC-257) was > 100 µM (inactive) and the GI50 (UACC-62) was > 100 µM (inactive).
